Among the data in PubChem BioAssay AID624456 (Sanford-Burnham Center for Chemical Genomics, 2012) are stability values, retold here.

Molecules are shown by their SMILES.

For the data set, the system named is compound stability in 1x PBS, percent remaining. In words: percent compound remaining in PBS buffer – biochemical, 1x PBS, with and without 50% ACN, set 2, ADME assay (AID 624456).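 Note: percent left after two days of incubation at room temperature.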
[1] abbreviates: measured here: stability in PBS with 50% ACN.

Turning to `Cc1ccc(C)c(NS(=O)(=O)c2cc(C(=O)Nc3ccccc3-c3ccccc3)ccc2Cl)c1`, the stability amounted to 34.6%. Also, the stability under setting [1] amounted to 98%.
Molecule `O=c1[nH]c(SCc2ccc(Cl)cc2)nc2c1CCC2` returned a stability of 98.3%. The stability under setting [1] is 100%.
For `c1ccc2c(Nc3nnc(-c4ccncc4)s3)cccc2c1` the same measures were 84.2% and 100%.
Molecule `O=C1NCCCc2c1oc1ccc(O)cc21` had a stability of 100%. Also, the stability under setting [1] was 100%.
For the molecule `O=C(O)CCC(NS(=O)(=O)c1ccc(-c2ccccc2)cc1)C(=O)O` (stereo not drawn), the stability turned out to be 100%. Under setting [1], the stability was 100%.
On to `COc1ccc(S(=O)(=O)N2CCN(S(=O)(=O)c3ccc4c(c3)OCCO4)CC2)cc1`, for which the stability worked out at 72.3%. Also, the stability under setting [1] was 80.8%.
For the molecule `c1ccc(-c2nnc(N3CCOCC3)nc2-c2ccccc2)cc1`, the stability was 57.4%. The molecule also returned a stability under setting [1] of 100%.
Turning to `Cc1cc(-c2nnc3n2CCCCC3)c(C)n1-c1ccccc1`, the stability is 100%. The stability under setting [1] turned out to be 100%.
As to `CCCC(=O)Nc1cccc(NC(=O)c2ccccc2Br)c1`, the stability was determined as 79.5%. The same molecule showed a stability under setting [1] of 86.7%.
`O=C(O)c1ccc(N2C(=O)/C(=C/c3ccc(-c4ccc([N+](=O)[O-])cc4)o3)C=C2c2ccccc2)cc1` showed a stability of 14.5%. Besides, under setting [1], the stability worked out at 62.9%.
In the case of `O=C(O)c1cccnc1SCCc1ccccc1`, the stability worked out at 96.5%. Besides, under setting [1], the stability stood at 100%.
Consider `COc1ccc(C2CC(c3ccccc3)=NN2c2ccc(S(N)(=O)=O)cc2)cc1` (stereo not drawn), for which the stability is 58.2%. The molecule further gave a stability under setting [1] of 90.9%.
For the molecule `Cn1cnc([N+](=O)[O-])c1Sc1ncnc2nc[nH]c12`, the stability was 31.9%.
For `O=C(COC(=O)C12CC3CC(CC(C3)C1)C2)NCc1ccco1`, the stability was found to be 49.6%. The molecule further yielded a stability under setting [1] of 88.2%.
As to `COc1ccc(S(=O)(=O)n2nc(OC(=O)c3ccccc3)cc2N)cc1`, the stability stood at 11.1%. Besides, the stability under setting [1] turned out to be 91.8%.
Molecule `CSc1nc(-c2ccc(C)cc2)nc(C(Cl)Cl)n1` returned a stability of 0.45%. This molecule also came in with a stability under setting [1] of 96.5%.
For `O=C1C2CC=CCC2C(=O)N1c1n[nH]c(-c2ccccc2)n1` (stereo not drawn) the same measures were 50.8% and 100%.
`Cc1cc(C)nc(-n2nc(C)c(Sc3ccc(F)cc3)c2N)n1` came in with a stability of 56%. Under setting [1], this molecule had a stability of 100%.
`O=C(CCNS(=O)(=O)c1cccc2nsnc12)N1CCN(c2ccccn2)CC1` yielded a stability of 91.6%. The molecule further registered a stability under setting [1] of 100%.
The corresponding values for `CC(=O)c1ccc(N2CCN(S(=O)(=O)c3ccc4c(c3)CC(=O)N4)CC2)cc1` are 95.7% and 100%.
In the case of `O=S1(=O)Nc2c(ccc3cccnc23)-c2ccccc21`, the stability is 91.3%. Moreover, the stability under setting [1] amounted to 94.9%.
The corresponding values for `C/C=C/Cn1c(SCCCc2ccccc2)nc2c1c(=O)[nH]c(=O)n2C` are 73.4% and 100%.
With `COc1ccc(CSc2nc(C)cc(=O)[nH]2)cc1`, the stability came to 88.5%. For the same molecule, under setting [1], the stability came to 99.8%.
Turning to `CCOc1ccc(-c2nc(-c3ccncc3)no2)cc1OCC`, the stability was 59.9%. Also, the stability under setting [1] came to 100%.
The molecule `CCCN1CNc2c(c(=O)[nH]c(=S)n2CCc2ccc(OC)c(OC)c2)C1` yielded a stability of 78.5%. Moreover, the stability under setting [1] was 100%.
`Cc1ccc(-n2c(N)c(C#N)c(-c3ccccc3)c(C#N)c2=O)cc1` yielded a stability of 81.4%. The stability under setting [1] is 98.2%.
For `COc1nc(-c2ccccc2)nnc1-c1ccccc1` the same measures were 10.1% and 98.9%.
